According to ChEMBL document CHEMBL3120155, “4,4'-Diaminodiphenyl ether derivatives: synthesis, spectral, optical, thermal characterization and in-vitro cytotoxicity against Hep 3B and IMR 32 human cell lines” (Eur J Med Chem, 2014):
Converted amounts (≈) assume the structure as drawn. The source made the active and inactive calls. The calls are words filed in the database; no cut-off is given here.

How the values were obtained:
[1] = Cytotoxicity against human Hep3B cells after 6 hrs by MTT assay; assay type: functional, cell-based, Hep 3B2
[2] = Cytotoxicity against human IMR32 cells after 6 hrs by MTT assay; assay type: functional, cell-based; conditions: IMR-32, 6 h
[3] = tested on: IMR-32; test: Induction of apoptosis in human IMR32 cells assessed as DNA fragmentation at IC50 after 6 hrs by agarose gel electrophoresis; assay type: functional, cell-based
[4] = tested on: Hep 3B2; test: Induction of apoptosis in human Hep3B cells assessed as DNA fragmentation at IC50 after 6 hrs by agarose gel electrophoresis; assay type: functional, cell-based
[5] = tested on: IMR-32; test: Induction of apoptosis in human IMR32 cells assessed as cell shrinkage at IC50 after 6 hrs by microscopic analysis; assay type: functional, cell-based
[6] = tested on: Hep 3B2; test: Induction of apoptosis in human Hep3B cells assessed as cell shrinkage at IC50 after 6 hrs by microscopic analysis; assay type: functional, cell-based

For `C(=N\c1ccc(Oc2ccc(/N=C/c3c4ccccc4cc4ccccc34)cc2)cc1)/c1c2ccccc2cc2ccccc12`, the IC50 [1] was 59.6 µg/mL (≈ 103 µM) and the IC50 [2] was 50.3 µg/mL (≈ 87.3 µM).

`c1ccc2c(CNc3ccc(Oc4ccc(NCc5cccc6ccccc56)cc4)cc3)cccc2c1` gave an IC50 [1] of 89.1 µg/mL (≈ 185 µM) and an IC50 [2] of 89.1 µg/mL (≈ 185 µM).

With `c1ccc2c(CNc3ccc(Oc4ccc(NCc5c6ccccc6cc6ccccc56)cc4)cc3)c3ccccc3cc2c1` the IC50 [1] was 50.1 µg/mL (≈ 86.3 µM) and the IC50 [2] was 65 µg/mL (≈ 112 µM).

For `Nc1ccc(Oc2ccc(N)cc2)cc1`, the IC50 [1] was 83.2 µg/mL (≈ 415 µM) and the IC50 [2] was 54.5 µg/mL (≈ 272 µM).

In the case of `c1ccc(CNc2ccc(Oc3ccc(NCc4ccccc4)cc3)cc2)cc1`, the Activity [3] was “Active”, the Activity [4] was “Active” and the IC50 [1] was 28.2 µg/mL (≈ 74.1 µM). For the same compound, the IC50 [2] was 31.9 µg/mL (≈ 83.9 µM).

With `C(=N\c1ccc(Oc2ccc(/N=C/c3cc4ccccc4c4ccccc34)cc2)cc1)/c1cc2ccccc2c2ccccc12` the IC50 [1] was 44.7 µg/mL (≈ 77.5 µM) and the IC50 [2] was 63.1 µg/mL (≈ 109 µM).

For `C(=N\c1ccc(Oc2ccc(/N=C/c3cccc4ccccc34)cc2)cc1)/c1cccc2ccccc12`, the Activity [3] was “Active”, the Activity [4] was “Active” and the Activity [5] was “Active”. The IC50 [1] was 14.1 µg/mL (≈ 29.6 µM), the IC50 [2] was 33.5 µg/mL (≈ 70.3 µM) and the Activity [6] was “Active”.

For `C(=N\c1ccc(Oc2ccc(/N=C/c3ccccc3)cc2)cc1)/c1ccccc1`, the IC50 [1] was 29.8 µg/mL (≈ 79.3 µM) and the IC50 [2] was 42.9 µg/mL (≈ 114 µM).
